Key:
Assay in all cases: relative viability (nuclei count vs DMSO), 5 days (fraction); higher = more cells survive
A-427 = tested on: A-427
How it was run: (§1)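 Lung cancer cell lines in 1536-well plates got either a single drug or a fixed anchor-drug dose together with five library-drug doses (not always all listed) in √10 steps, by pin tool, on the day after seeding. Nuclei were counted after 5 days, and relative viability is the treated-to-vehicle ratio of nuclei counts. Values are medians of duplicate plates.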

COR-L 105 = tested on: COR-L 105
How it was run: as §1

EKVX = tested on: EKVX
How it was run: as §1

EMC-BAC-2 = tested on: EMC-BAC-2
How it was run: as §1

H3255 = tested on: H3255
How it was run: as §1

HCC-366 = tested on: HCC-366
How it was run: as §1

LK-2 = tested on: LK-2
How it was run: as §1

LOU-NH91 = tested on: LOU-NH91
How it was run: as §1

NCI-H1563 = tested on: NCI-H1563
How it was run: as §1

NCI-H1666 = tested on: NCI-H1666
How it was run: as §1

NCI-H1734 = tested on: NCI-H1734
How it was run: as §1

NCI-H1755 = tested on: NCI-H1755
How it was run: as §1

NCI-H1792 = tested on: NCI-H1792
How it was run: as §1

NCI-H1975 = tested on: NCI-H1975
How it was run: as §1

NCI-H23 = tested on: NCI-H23
How it was run: as §1

NCI-H441 = tested on: NCI-H441
How it was run: as §1

NCI-H520 = tested on: NCI-H520
How it was run: as §1

NCI-H596 = tested on: NCI-H596
How it was run: as §1

PC-3 [JPC-3] = tested on: PC-3 [JPC-3]
How it was run: as §1

SK-MES-1 = tested on: SK-MES-1
How it was run: as §1

For `NC(=O)Nc1cc(-c2cccc(F)c2)sc1C(=O)N[C@H]1CCCNC1` [AZD7762] + C[C@]1(O)C[C@@H](c2nc(-c3ccc4ccc(-c5ccccc5)nc4c3)c3c(N)nccn32)C1 [Linsitinib] (partner 1 µM), the relative viability (A-427; first compound 0.01 µM) was 1.13, the relative viability (A-427; first compound 0.03162 µM) was 1.18 and the relative viability (A-427; first compound 0.1 µM) was 1.22. It also gave a relative viability (A-427; first compound 0.3162 µM) of 1.13, a relative viability (A-427; first compound 1 µM) of 0.976 and a relative viability (COR-L 105; first compound 0.01 µM) of 0.855. The relative viability (COR-L 105; first compound 0.03162 µM) was 0.921, the relative viability (COR-L 105; first compound 0.1 µM) was 0.748 and the relative viability (COR-L 105; first compound 0.3162 µM) was 0.662. It also gave a relative viability (COR-L 105; first compound 1 µM) of 0.393, a relative viability (EKVX; first compound 0.01 µM) of 0.972 and a relative viability (EKVX; first compound 0.03162 µM) of 0.971. For the same compound, the relative viability (EKVX; first compound 0.1 µM) was 0.844, the relative viability (EKVX; first compound 0.3162 µM) was 0.873 and the relative viability (EKVX; first compound 1 µM) was 0.507. For the same compound, the relative viability (EMC-BAC-2; first compound 0.01 µM) was 0.795, the relative viability (EMC-BAC-2; first compound 0.03162 µM) was 0.806 and the relative viability (EMC-BAC-2; first compound 0.1 µM) was 0.799. It also gave a relative viability (EMC-BAC-2; first compound 0.3162 µM) of 0.799, a relative viability (EMC-BAC-2; first compound 1 µM) of 0.809 and a relative viability (H3255; first compound 0.01 µM) of 0.931. The relative viability (H3255; first compound 0.03162 µM) was 1.04, the relative viability (H3255; first compound 0.1 µM) was 0.969 and the relative viability (H3255; first compound 0.3162 µM) was 0.947. It also gave a relative viability (H3255; first compound 1 µM) of 0.817, a relative viability (HCC-366; first compound 0.01 µM) of 0.587 and a relative viability (HCC-366; first compound 0.03162 µM) of 0.666. For the same compound, the relative viability (HCC-366; first compound 0.1 µM) was 0.607, the relative viability (HCC-366; first compound 0.3162 µM) was 0.255 and the relative viability (HCC-366; first compound 1 µM) was 0.0442. For the same compound, the relative viability (LK-2; first compound 0.01 µM) was 0.691, the relative viability (LK-2; first compound 0.03162 µM) was 0.597 and the relative viability (LK-2; first compound 0.1 µM) was 0.618. The relative viability (LK-2; first compound 0.3162 µM) was 0.645, the relative viability (LK-2; first compound 1 µM) was 0.308 and the relative viability (LOU-NH91; first compound 0.01 µM) was 1.01. The relative viability (LOU-NH91; first compound 0.03162 µM) was 0.966, the relative viability (LOU-NH91; first compound 0.1 µM) was 0.933 and the relative viability (LOU-NH91; first compound 0.3162 µM) was 0.794. It also gave a relative viability (LOU-NH91; first compound 1 µM) of 0.57, a relative viability (NCI-H1563; first compound 0.01 µM) of 1.25 and a relative viability (NCI-H1563; first compound 0.03162 µM) of 1.25. The relative viability (NCI-H1563; first compound 0.1 µM) was 1.46, the relative viability (NCI-H1563; first compound 0.3162 µM) was 1.12 and the relative viability (NCI-H1563; first compound 1 µM) was 0.953. It also gave a relative viability (NCI-H1666; first compound 0.01 µM) of 0.845, a relative viability (NCI-H1666; first compound 0.03162 µM) of 1.02 and a relative viability (NCI-H1666; first compound 0.1 µM) of 1.05. The relative viability (NCI-H1666; first compound 0.3162 µM) was 0.868, the relative viability (NCI-H1666; first compound 1 µM) was 0.565 and the relative viability (NCI-H1734; first compound 0.01 µM) was 0.885. For the same compound, the relative viability (NCI-H1734; first compound 0.03162 µM) was 0.887, the relative viability (NCI-H1734; first compound 0.1 µM) was 1.05 and the relative viability (NCI-H1734; first compound 0.3162 µM) was 0.869. The relative viability (NCI-H1734; first compound 1 µM) was 0.734, the relative viability (NCI-H1755; first compound 0.01 µM) was 1.03 and the relative viability (NCI-H1755; first compound 0.03162 µM) was 1.06. It also gave a relative viability (NCI-H1755; first compound 0.1 µM) of 1.06, a relative viability (NCI-H1755; first compound 0.3162 µM) of 1.03 and a relative viability (NCI-H1755; first compound 1 µM) of 0.646. The relative viability (NCI-H1792; first compound 0.01 µM) was 0.604, the relative viability (NCI-H1792; first compound 0.03162 µM) was 0.588 and the relative viability (NCI-H1792; first compound 0.1 µM) was 0.624. The relative viability (NCI-H1792; first compound 0.3162 µM) was 0.599, the relative viability (NCI-H1792; first compound 1 µM) was 0.707 and the relative viability (NCI-H1975; first compound 0.01 µM) was 1.07. The relative viability (NCI-H1975; first compound 0.03162 µM) was 0.888, the relative viability (NCI-H1975; first compound 0.1 µM) was 0.881 and the relative viability (NCI-H1975; first compound 0.3162 µM) was 0.681. For the same compound, the relative viability (NCI-H1975; first compound 1 µM) was 0.482, the relative viability (NCI-H23; first compound 0.01 µM) was 0.659 and the relative viability (NCI-H23; first compound 0.03162 µM) was 0.631. It also gave a relative viability (NCI-H23; first compound 0.1 µM) of 0.517, a relative viability (NCI-H23; first compound 0.3162 µM) of 0.517 and a relative viability (NCI-H23; first compound 1 µM) of 0.252. It also gave a relative viability (NCI-H441; first compound 0.01 µM) of 0.656, a relative viability (NCI-H441; first compound 0.03162 µM) of 0.744 and a relative viability (NCI-H441; first compound 0.1 µM) of 0.657. For the same compound, the relative viability (NCI-H441; first compound 0.3162 µM) was 0.823, the relative viability (NCI-H441; first compound 1 µM) was 0.67 and the relative viability (NCI-H520; first compound 0.01 µM) was 1.16. The relative viability (NCI-H520; first compound 0.03162 µM) was 0.893, the relative viability (NCI-H520; first compound 0.1 µM) was 0.848 and the relative viability (NCI-H520; first compound 0.3162 µM) was 0.551. The relative viability (NCI-H520; first compound 1 µM) was 0.389, the relative viability (NCI-H596; first compound 0.01 µM) was 1.04 and the relative viability (NCI-H596; first compound 0.03162 µM) was 1.04. The relative viability (NCI-H596; first compound 0.1 µM) was 1.03, the relative viability (NCI-H596; first compound 0.3162 µM) was 1.1 and the relative viability (NCI-H596; first compound 1 µM) was 0.923. For the same compound, the relative viability (PC-3 [JPC-3]; first compound 0.01 µM) was 0.929, the relative viability (PC-3 [JPC-3]; first compound 0.03162 µM) was 0.966 and the relative viability (PC-3 [JPC-3]; first compound 0.1 µM) was 0.999. It also gave a relative viability (PC-3 [JPC-3]; first compound 0.3162 µM) of 0.987, a relative viability (PC-3 [JPC-3]; first compound 1 µM) of 0.927 and a relative viability (SK-MES-1; first compound 0.01 µM) of 1.06. The relative viability (SK-MES-1; first compound 0.03162 µM) was 1.12, the relative viability (SK-MES-1; first compound 0.1 µM) was 1.11 and the relative viability (SK-MES-1; first compound 0.3162 µM) was 1.04. For the same compound, the relative viability (SK-MES-1; first compound 1 µM) was 0.414.

Reference: the supplement of paper PMC10307832
